Data from article PMC3335879, “Selective Inhibitors of Protozoan Protein N-myristoyltransferases as Starting Points for Tropical Disease Medicinal Chemistry Programs” (PLoS Neglected Tropical Diseases, 2012).
Like-named read-outs stand apart in the source and are kept apart here.

Key:
[1] = target: T1, P. falciparum NMT (Plasmodium falciparum, UniProt Q8ILW6); assay: biochemical; conditions: for Pfal LE: ligand efficiency calculated from Pfal NMT IC50; for Pfal/Ldon Sel: selectivity for Pfal NMT over Ldon NMT derived from IC50 values
T1 construct: made in house
T1 sequence (Q8ILW6 1-410): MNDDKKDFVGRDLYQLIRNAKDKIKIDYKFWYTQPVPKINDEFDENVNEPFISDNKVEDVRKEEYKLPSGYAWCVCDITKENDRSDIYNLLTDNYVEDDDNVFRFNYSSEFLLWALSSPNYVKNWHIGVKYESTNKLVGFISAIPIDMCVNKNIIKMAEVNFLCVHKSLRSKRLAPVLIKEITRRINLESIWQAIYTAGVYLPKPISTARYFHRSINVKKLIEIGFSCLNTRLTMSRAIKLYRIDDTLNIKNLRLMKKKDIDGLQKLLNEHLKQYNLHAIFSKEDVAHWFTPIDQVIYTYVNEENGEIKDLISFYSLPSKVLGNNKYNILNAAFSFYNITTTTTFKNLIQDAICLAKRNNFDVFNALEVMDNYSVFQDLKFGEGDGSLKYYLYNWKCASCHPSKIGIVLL
Description: Recombinant P. falciparum (Swiss-Prot Q81LW6) and L. donovani NMTs (EMBL accession number FN555136) were produced at the University of York, using established protocols. An assay format based on scintillation proximity technology to monitor enzyme activity was used as previously described, [30]. […]
(§1) The reaction was initiated by adding 10 µL of the substrate mixture to each well containing the pre-incubated enzyme/compound mixture, and allowed to proceed at RT for 80 min. The reaction was quenched by the addition 20 µl of stop solution to each well. Stop solution consisted of 0.75 M MgCl2 (Sigma), 0.1 M phosphoric acid (Sigma) and 1 mg/ml of streptavidin-coated polystyrene SPA beads (Perkin-Elmer). Plates were sealed using topseals (Perkin-Elmer) and left overnight to allow the bead solution to settle. Radioactive counts were measured with an integration time of 300 sec per plate using the Leadseeker Generation 4 plate reader (GE Healthcare). Each plate included a positive control of 1 µM final assay concentration of DDD85646 [22] and 1% DMSO as a negative control. […] The data were analysed using Pfizer SIGHTS software and visualised using Spotfire software (TIBCO).

[2] = target: L. donovani NMT (Leishmania donovani, UniProt D0AB09); assay: biochemical; conditions: for Ldon LE: ligand efficiency calculated from Ldon NMT IC50
Description: Recombinant P. falciparum (Swiss-Prot Q81LW6) and L. donovani NMTs (EMBL accession number FN555136) were produced at the University of York, using established protocols. An assay format based on scintillation proximity technology to monitor enzyme activity was used as previously described, [30].
The Pfizer Global Diverse Representative Set consisting of 150,000 compounds was screened at 20 µM final assay concentration. Assay plates were prepared by dispensing 0.1 µL of compound dissolved in DMSO using the Vario system (Cybio) into white 384-well plates (Greiner Bio-One).
as §1

[3] = target: T2, T brucei NMT (Trypanosoma brucei brucei, UniProt Q388H8); assay: T. brucei NMT scintillation proximity dose-response assay; format: biochemical
T2 construct: made in house
T2 sequence (Q388H8 1-446): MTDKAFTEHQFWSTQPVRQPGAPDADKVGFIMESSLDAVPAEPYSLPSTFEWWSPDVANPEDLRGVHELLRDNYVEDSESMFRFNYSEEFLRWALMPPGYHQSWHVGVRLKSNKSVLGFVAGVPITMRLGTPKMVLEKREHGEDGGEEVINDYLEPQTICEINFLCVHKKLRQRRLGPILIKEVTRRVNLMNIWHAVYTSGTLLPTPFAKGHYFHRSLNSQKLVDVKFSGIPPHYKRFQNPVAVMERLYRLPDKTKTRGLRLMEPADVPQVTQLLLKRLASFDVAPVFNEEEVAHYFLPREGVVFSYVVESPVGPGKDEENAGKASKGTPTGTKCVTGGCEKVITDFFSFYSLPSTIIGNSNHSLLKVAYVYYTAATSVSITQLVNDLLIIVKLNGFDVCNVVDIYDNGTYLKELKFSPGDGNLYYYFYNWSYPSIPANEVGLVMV

[4] = target: T3, HsNMT1 (Homo sapiens, UniProt P30419); assay: Human NMT1 scintillation proximity dose-response assay; format: biochemical; conditions: Table 2; single determination; read-out: Hs1 IC50
T3 construct: made in house
T3 sequence (P30419 1-496): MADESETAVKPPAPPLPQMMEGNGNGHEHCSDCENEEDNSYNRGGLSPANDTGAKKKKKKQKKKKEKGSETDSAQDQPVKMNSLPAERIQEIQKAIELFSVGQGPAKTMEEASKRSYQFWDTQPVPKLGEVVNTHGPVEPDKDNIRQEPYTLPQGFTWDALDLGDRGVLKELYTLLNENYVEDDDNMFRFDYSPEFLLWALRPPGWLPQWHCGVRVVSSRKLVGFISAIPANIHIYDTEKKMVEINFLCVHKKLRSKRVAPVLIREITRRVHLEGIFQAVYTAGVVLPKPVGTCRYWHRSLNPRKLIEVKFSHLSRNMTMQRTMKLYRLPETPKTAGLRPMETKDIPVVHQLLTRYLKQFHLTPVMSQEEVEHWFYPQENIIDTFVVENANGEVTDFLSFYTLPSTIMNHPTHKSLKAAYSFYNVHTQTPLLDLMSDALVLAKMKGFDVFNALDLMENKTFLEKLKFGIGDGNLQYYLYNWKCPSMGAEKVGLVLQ

[5] = target: T4, HsNMT2 (Homo sapiens, UniProt O60551); assay: Human NMT2 scintillation proximity dose-response assay; format: biochemical; conditions: Table 2; single determination; read-out: Hs2 IC50
T4 construct: made in house
T4 sequence (O60551 1-498): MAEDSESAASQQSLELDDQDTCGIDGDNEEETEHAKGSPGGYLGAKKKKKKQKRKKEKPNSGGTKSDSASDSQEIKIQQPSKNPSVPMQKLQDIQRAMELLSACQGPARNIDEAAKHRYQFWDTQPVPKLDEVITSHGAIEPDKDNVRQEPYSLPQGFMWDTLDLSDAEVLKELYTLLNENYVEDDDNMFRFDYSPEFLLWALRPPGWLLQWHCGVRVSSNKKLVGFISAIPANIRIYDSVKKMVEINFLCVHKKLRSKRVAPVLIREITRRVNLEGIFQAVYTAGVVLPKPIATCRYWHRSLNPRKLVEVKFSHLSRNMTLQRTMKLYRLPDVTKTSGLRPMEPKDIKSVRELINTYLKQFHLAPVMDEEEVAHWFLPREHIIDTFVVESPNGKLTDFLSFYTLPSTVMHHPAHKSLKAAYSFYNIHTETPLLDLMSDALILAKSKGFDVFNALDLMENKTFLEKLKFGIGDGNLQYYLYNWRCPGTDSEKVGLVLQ

[6] = Table 1, mean of 3 separate experiments, top concentration 80 µM, read-out: Pfal IC50
[7] = Table 2, mean of 3 determinations, read-out: Pfal IC50
[8] = Table 1, mean of 3 separate experiments, top concentration 80 µM, read-out: Ldon IC50
[9] = Table 2, mean of 3 determinations, read-out: Ldon IC50
[10] = Table 2, single determination, read-out: Tb IC50
[11] = Ldon IC50, Table 1, mean of 3 separate experiments, top concentration 80 µM
[12] = Ldon IC50, Table 2, mean of 3 determinations

L. donovani NMT, sequence (D0AB09 entry or part of it): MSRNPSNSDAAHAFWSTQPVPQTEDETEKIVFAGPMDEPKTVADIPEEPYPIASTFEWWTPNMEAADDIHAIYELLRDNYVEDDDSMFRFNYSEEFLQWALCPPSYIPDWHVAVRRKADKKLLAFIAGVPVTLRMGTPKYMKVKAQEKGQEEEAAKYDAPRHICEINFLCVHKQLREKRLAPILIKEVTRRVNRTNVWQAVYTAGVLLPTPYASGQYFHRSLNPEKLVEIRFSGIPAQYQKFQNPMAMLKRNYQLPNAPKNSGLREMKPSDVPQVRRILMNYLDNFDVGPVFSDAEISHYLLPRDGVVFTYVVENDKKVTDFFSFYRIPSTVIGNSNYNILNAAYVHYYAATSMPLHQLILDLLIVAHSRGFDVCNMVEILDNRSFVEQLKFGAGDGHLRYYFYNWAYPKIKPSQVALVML

Row | Structure (SMILES) | IC50 [1, 6] [µM] | IC50 [1, 7] [µM] | IC50 [2, 8] [µM] | IC50 [2, 9] [µM] | Ldon LE [2] | IC50 [3, 10] [µM] | IC50 [4] [µM] | IC50 [5] [µM] | Pfal LE [1] | Pfal/Ldon Sel [1] | IC50 [1] [µM] | IC50 [2, 11] [µM] | IC50 [2, 12] [µM] | IC50 [3] [µM]
1 | NC(CC(=O)N1CC(CO)C(c2ccc(Cl)cc2)C1)Cc1ccc(Cl)cc1 (centres unmarked) [PF-03402623] | 71.9 | 71.9 | 0.093 | 0.093 | 0.35 | 1.5 | 5.2 | 14.7 | – | – | – | – | – | –
2 | CNCC(=O)N1CC[C@@H](NC(=O)c2ccccc2C(F)(F)F)C1 [CP-854190] | 1.72 | 1.72 | 38.7 | 38.7 | – | > 80 | 0.57 | 1.59 | 0.34 | 22.5 | – | – | – | –
3 | Cc1cc2nc(N(C)C3CCN(C)CC3)nc(N(C)CCC#N)c2s1 [PF-00349412] | – | – | – | – | 0.34 | – | 9 | 11.5 | – | – | 39.6 | 0.482 | 0.48 | 56.2
4 | Cc1cnc(CNC(=O)C2CN(c3nc(NCCN(C)C)ncc3Cl)C2)cn1 [PF-03531814] | 0.482 | 0.48 | 72 | 72 | – | > 80 | 70 | 76 | 0.31 | 150 | – | – | – | –
5 | Cn1c(CN2CCC(c3cc(F)cc(F)c3)CC2)nc2cc(Cl)ccc21 [PF-03665853] | 0.91 | 0.91 | – | – | – | 35.4 | 0.51 | 0.56 | 0.32 | >88 | – | > 80 | > 80 | –
6 | c1cncc(CCNCc2cccc(-c3cccc(CN4CCc5ncsc5C4)c3)c2)c1 [PF-00075634] | > 80 | > 80 | 0.158 | 0.16 | 0.29 | > 80 | 36.1 | 26.7 | – | – | – | – | – | –
